In publication PMC6242746 (Chemistry, an Asian journal, 2018):

Assays:
[1] = Self-assembly: hydrogelation and nanofiber formation; type: physicochemical; conditions: 500 μM, TEM images
HeLa cells = test: Percentage of peptide remained in HeLa cell lysate; type: in vitro ADME; conditions: 200 μM alone or with 100 nM BTZ, 1 h; cell lysate or culture medium

| Substance | Nanofiber formation (TEM) [1] | Degradation in HeLa cells compared with 1 (in words) (HeLa cells) |
| --- | --- | --- |
| Nap-Phe-Phe-Glu [compound 3] | can form nanofibers | degrade slower than 1 |
| Nap-Phe-Phe-Asn [compound 2] | can form nanofibers | degrade slower than 1 |
